One assay deals with T1, Papain (Carica papaya, UniProt P00784).
T1 sequence (P00784 134-345): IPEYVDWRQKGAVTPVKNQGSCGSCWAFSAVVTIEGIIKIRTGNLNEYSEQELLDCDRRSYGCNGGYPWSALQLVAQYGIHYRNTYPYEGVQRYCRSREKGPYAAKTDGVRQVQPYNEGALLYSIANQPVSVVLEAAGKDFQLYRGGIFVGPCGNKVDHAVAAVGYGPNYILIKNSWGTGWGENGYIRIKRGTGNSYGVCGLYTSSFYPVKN
Kind of assay: Papain inhibition, Ki by Dixon plot (Table PKC1). It counts as biochemical. The following applies: 0.05M Tris-HCl pH 7.5, 2 mM EDTA, 5 mM cysteine, 1% DMSO, 25° C., substrate Nα-Benzoyl-Arg-AMC; read-out: Ki P (Papain). As for the experimental part: (§1) Various concentrations of inhibitors in dimethylsulfoxide (DMSO) were added to the assay mixture, which contained buffer and substrate. The reaction was started by the addition of the enzyme and the hydrolysis rates were followed spectrophotometrically or fluorimetrically. 88 mM KH2 PO4, 12 mM Na2 HPO4, 1.33 mM EDTA, 2.7 mM cysteine, pH 6.0 was used as a buffer for cathepsin B; and 20 mM Hepes, 10 mM CaCl2, 10 mM β-mercaptoethanol, pH 7.2 buffer was utilized for calpain I and calpain II.
(§2) All peptide thioester hydrolysis rates were measured with assay mixtures containing 4,4'-dithiodipyridine [e324=19800 M-1 cm-1; Grasetti & Murray, Arch. Biochem. Biophys. 119, pp 41-49 (1967)]. Papain was assayed with Bz-Arg-AMC or Bz-Arg-NA [Kanaoka et al., Chem. Pharm. Bull. 25, 3126-3128 (1977)], and the AMC (7-amino-4-methylcoumarin) release was followed fluorimetrically (excitation at 380 nm, and emission at 460 nm). Cathepsin B was assayed with Z-Arg-Arg-AFC [Barrett and Kirschke, Methods Enzymol. 80, 535-561 (1981)], and the AFC (7-amino-4-trifluoromethylcoumarin) release was followed fluorimetrically (excitation at 400 nm, and emission at 505 nm). Calpain I from human erythrocytes and calpain II from rabbit were assayed using Suc-Leu-Tyr-AMC [Sasaki et al., J. Biol. Chem. 259, 12489-12494 (1984), hereby incorporated by reference], and the AMC (7-amino-4-methylcoumarin) release was followed fluorimetrically (excitation at 380 nm, and emission at 460 nm). Enzymatic hydrolysis rates were measured at various substrate and inhibitor concentrations, and Ki values were determined by Dixon plot.
The inhibition constants for papain shown in Table PKC1 were measured in 0.05M Tris-HCl, pH 7.5 buffer, containing 2 mM EDTA, 5 mM cysteine (freshly prepared), 1% DMSO, at 25° C., using N^α -Benzoyl-Arg-AMC as a substrate, except that those values of inhibition constants for papain marked with an "e" in Table PKC1 were measured in 50 mM Tris-HCl, pH 7.5 buffer, containing 20 mM EDTA, 5 mM cysteine, 9% DMSO, at 25° C., using N^α -Benzoyl-Arg-NA as a substrate.

A further assay concerns the target Cathepsin B (Bos taurus, UniProt P07688). The experiment in a line: Cathepsin B inhibition, Z-Arg-Arg-AFC (Table PKC1). The class given is biochemical. The conditions noted are these: pH 6.0 phosphate buffer, substrate Z-Arg-Arg-AFC; read-out: Ki CB (Cathepsin B). As for the experimental part: as §1, §2
Assay [1] deals with T2, Calpain I from human erythrocytes (Homo sapiens, UniProt P07384).
T2 construct: Calpain I from human erythrocytes and calpain II from rabbit were assayed using Suc-Leu-Tyr-AMC; from tissue; host or cells: human erythrocytes
T2 sequence (P07384 1-714): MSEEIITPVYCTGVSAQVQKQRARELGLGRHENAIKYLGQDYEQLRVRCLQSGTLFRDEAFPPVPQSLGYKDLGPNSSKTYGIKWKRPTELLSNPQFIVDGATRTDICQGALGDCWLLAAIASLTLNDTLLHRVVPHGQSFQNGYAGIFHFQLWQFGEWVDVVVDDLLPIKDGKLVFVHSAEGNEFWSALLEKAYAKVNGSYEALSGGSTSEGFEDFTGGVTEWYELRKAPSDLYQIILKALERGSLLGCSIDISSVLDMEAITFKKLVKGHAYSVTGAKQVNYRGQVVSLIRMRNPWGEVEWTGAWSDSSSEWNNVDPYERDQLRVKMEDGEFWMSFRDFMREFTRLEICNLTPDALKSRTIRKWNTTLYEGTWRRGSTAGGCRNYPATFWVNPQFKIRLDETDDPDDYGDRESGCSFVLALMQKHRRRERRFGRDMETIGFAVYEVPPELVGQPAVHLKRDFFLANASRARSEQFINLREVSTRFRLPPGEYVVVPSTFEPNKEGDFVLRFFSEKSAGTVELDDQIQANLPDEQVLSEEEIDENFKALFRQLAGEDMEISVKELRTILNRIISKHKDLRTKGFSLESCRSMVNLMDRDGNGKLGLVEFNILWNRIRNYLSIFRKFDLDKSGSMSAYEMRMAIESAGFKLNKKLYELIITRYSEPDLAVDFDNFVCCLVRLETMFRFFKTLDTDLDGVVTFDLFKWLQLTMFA
T2 sequence (P04632 1-268 partner): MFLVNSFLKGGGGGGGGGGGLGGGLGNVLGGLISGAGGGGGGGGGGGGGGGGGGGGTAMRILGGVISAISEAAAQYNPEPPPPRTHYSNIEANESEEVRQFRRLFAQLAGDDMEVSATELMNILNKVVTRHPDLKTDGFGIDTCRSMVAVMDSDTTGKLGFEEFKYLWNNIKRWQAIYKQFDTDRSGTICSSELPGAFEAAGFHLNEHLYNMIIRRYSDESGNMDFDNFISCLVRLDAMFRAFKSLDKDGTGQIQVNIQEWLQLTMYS
Kind of assay: Calpain I inhibition, Suc-Leu-Tyr-AMC (Table PKC1). It counts as biochemical. The conditions noted are these: 20 mM Hepes, 10 mM CaCl2, 10 mM β-mercaptoethanol, pH 7.2; read-out: Ki CI (Calpain I). As for the experimental part: as §1, with “Our discovery of Peptide Keto-Compounds effective as Calpain Inhibitors was made through assay of the Peptide Keto-Compounds as reversible inhibitors. Various” for “Various”
as §2

Another assay addresses T3, Calpain I (Homo sapiens, UniProt P07384).
T3 sequence (P07384 1-714): T2 sequence (P07384 1-714)
T3 sequence (P04632 1-268 partner): T2 sequence (P04632 1-268 partner)
The experiment in a line: Calpain I 14C-methylated casein proteolysis (Table 1A). The class given is biochemical. As for the experimental part:
(§3) The isocoumarins are irreversible inhibitors of Calpain. We obtained IC50 values for a variety of these Calpain Inhibitors as a kinetic analysis of these compounds.
(§4) Calpains I and II were purified by the method of (Yoshimura, et al. 1983). (Kitahara 1984) provides an alternative purification scheme. Calpain II may alternatively be purchased from Sigma Chemical Co. as "Calcium Activated Neutral Protease." In this assay, purified Calpain was incubated with ^14 C-methylated casein in the presence of various Heterocyclic Compounds and the amount of acid-soluble radioactivity released by the action of Calpain was measured.

A further assay has as its target T4, Calpain II (Homo sapiens, UniProt P17655).
T4 construct: from tissue; purified by a cited method
T4 sequence (P17655 1-700): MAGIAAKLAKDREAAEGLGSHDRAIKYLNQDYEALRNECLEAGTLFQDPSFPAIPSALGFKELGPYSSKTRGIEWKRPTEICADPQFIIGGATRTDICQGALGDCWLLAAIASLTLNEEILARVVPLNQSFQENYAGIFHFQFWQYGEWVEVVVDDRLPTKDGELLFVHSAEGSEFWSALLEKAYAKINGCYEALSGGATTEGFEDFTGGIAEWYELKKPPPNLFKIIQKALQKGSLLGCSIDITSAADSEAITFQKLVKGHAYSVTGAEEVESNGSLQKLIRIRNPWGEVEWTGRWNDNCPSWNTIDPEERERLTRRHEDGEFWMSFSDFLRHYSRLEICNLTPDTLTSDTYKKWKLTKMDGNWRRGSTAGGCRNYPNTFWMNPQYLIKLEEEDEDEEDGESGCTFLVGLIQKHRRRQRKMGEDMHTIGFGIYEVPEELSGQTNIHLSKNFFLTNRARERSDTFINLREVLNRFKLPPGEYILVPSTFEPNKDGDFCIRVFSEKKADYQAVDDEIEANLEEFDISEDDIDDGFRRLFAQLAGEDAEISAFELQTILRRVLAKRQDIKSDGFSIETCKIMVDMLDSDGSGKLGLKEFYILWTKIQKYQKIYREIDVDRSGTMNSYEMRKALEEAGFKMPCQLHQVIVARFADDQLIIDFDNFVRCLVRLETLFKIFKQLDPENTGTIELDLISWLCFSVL
T4 sequence (P04632 1-268 partner): T2 sequence (P04632 1-268 partner)
The experiment in a line: Calpain II 14C-methylated casein proteolysis (Table 1A). It counts as biochemical. As for the experimental part: as §3, §4

Assay [2] has as its system Calpain in crude brain extracts. Kind of assay: Ca2+-stimulated spectrin proteolysis in crude brain extracts (Example 2). It counts as biochemical. The following applies: 100 μM. In outline: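 Brain tissue was homogenized in 10 mM Tris pH 7.4, 0.32 M sucrose, 1 mM EGTA and 1 mM DTT, and nuclei and debris were removed. Calpain activity was scored as Ca^2+-stimulated proteolysis of endogenous spectrin.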

In the next assay the test system is Calpain within platelets. The experiment in a line: Platelet membrane permeation assay, spectrin proteolysis (Examples 4A, 4B). The class given is cell-based, rat. The following applies: for inhibition of Calpain within platelets: 100 μM, A23187 1 μM. In outline:
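Rat (Sprague-Dawley) platelets at 10^7 cells/ml in HEPES buffer pH 7.4, preincubated 5 min with inhibitor, then 5 min with 1 μM A23187 to activate calpain. Spectrin proteolysis assessed by SDS-PAGE and anti-spectrin immunoblot, quantified by densitometry.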

The test system of a further assay is Calpain. The experiment in a line: Kapp/[I] of other irreversible Calpain Inhibitors. It counts as biochemical. The source says: The kinetic constants of other irreversible Calpain Inhibitors include the following with Kapp /[I] in parentheses: E-64 (7500), E64-d (23000) and Z-leu-leu-tyr-CHN2 (230000). E-64 is commercially available from Sigma Chemical Co., and is shown here to be a poor inhibitor of Calpain.

In assay [3] the target is T2, Calpain I from human erythrocytes. The experiment in a line: Calpain I Ki (Table 1B(i)). The class given is biochemical. The conditions noted are these: Suc-Leu-Tyr-amidomethylcoumarin, HEPES pH 7.2. As for the experimental part: The Peptide Keto-Compounds are reversible inhibitors of Calpains and other thiol proteases. […] Cathepsin B from bovine spleen was assayed using Z-Lys-4-nitrophenylphosphate as substrate.
The Ki value for the inhibition of Calpains and cathepsin B by several Peptide Keto-Compounds are shown in μM (micromolar). The values for leupeptin, which is commercially available from Calbiochem of La Jolla, Calif., are shown for comparison.

Structures are written as SMILES. Where a SMILES comes first, the peptide text is derived from it.

`CCOC(=O)C(=O)C(C)NC(=O)C(C)NC(=O)C(C)NC(=O)OCc1ccccc1` (racemic) [Z-Ala-Ala-DL-Ala-COOEt, Z-Ala-Ala-DL-Ala-CO2 Et]: the Ki (usually the dissociation constant of the complex between target and ligand, obtained from inhibition or displacement) at Papain worked out at 1.5 µM; on Cathepsin B, 2.2 µM; in assay [1], 200 µM.
Regarding `CC(C)(C)OC(=O)N[C@@H](Cc1ccccc1)C(=O)Nc1ccc2c(Cl)c(OCCCSC(=N)N)oc(=O)c2c1` [BOC-L-Phe-NH-CiTPrOIC, 7-(N-t-butyloxycarbonyl-L-phenylalanylamino)-4-chloro-3-(3-isothiureidopropoxy)isocoumarin], the “IC50 Calpain I” value at Calpain I is listed as “no inhibition”. For the same molecule, the IC50 (usually the concentration at which inhibition is half-maximal) on Calpain II was more than 200 µM.
Take `CC(=O)Nc1ccc2c(Cl)c(OCCCSC(=N)N)oc(=O)c2c1` [CH3 CONH-CiTPrOIC, 7-(acetylamino)-4-chloro-3-(3-isothiureidopropoxy)isocoumarin]: in [2], the “inhibition of spectrin proteolysis in crude brain extracts” value (“inhibition of spectrin proteolysis” for short) is “significant inhibition”. The “inhibition of Calpain within platelets” value in the assay with Calpain within platelets was “significant inhibition”. In addition, the values for the IC50 against Calpain I and at Calpain II were 700 µM and 80 µM, respectively.
On to `CCOC(=O)[C@H]1O[C@@H]1C(=O)N[C@@H](CC(C)C)C(=O)NCCC(C)C` [Example E64-d, Loxastatin], for which the “Kapp/[I] Calpain” value with Calpain amounted to 23000.
On to `CC(C)C[C@H](NC(=O)[C@H]1O[C@@H]1C(=O)O)C(=O)NCCCCN=C(N)N` [Example E-64, E-64, reference compound], for which the “Kapp/[I] Calpain” value in the assay on Calpain was 7500. Further, in the assay with Calpain within platelets (concentration not given), the “effect on intracellular (platelet) Calpain” value was “little effect”.
As for `N=C(N)SCCCOc1oc(=O)c2cc(NC(=O)[C@@H](N)Cc3ccccc3)ccc2c1Cl` [L-Phe-NH-CiTPrOIC, 7-(L-phenylalanylamino)-4-chloro-3-(3-isothiureidopropoxy)isocoumarin], the “inhibition of spectrin proteolysis” value in assay [2] is reported as “significant inhibition”. Besides, the “inhibition of Calpain within platelets” value in the assay on Calpain within platelets is “significant inhibition”. In addition, the half-inhibitory concentration (IC50) at Calpain II was found to be 30 µM.
`N=C(N)SCCCOc1oc(=O)c2cc(NC(=O)NCc3ccccc3)ccc2c1Cl` [PhCH2 NHCONH-CiTPrOIC, 7-(benzylcarbamoylamino)-4-chloro-3-(3-isothiureidopropoxy)isocoumarin]: the “inhibition of spectrin proteolysis” value in assay [2] was “significant inhibition”. For the same molecule, the “inhibition of Calpain within platelets” value in the assay with Calpain within platelets is given as “significant inhibition”. In addition, the concentration for half-maximal inhibition (IC50) against Calpain I came out at 80 µM; on Calpain II it was 30 µM.
In turn, `COC(=O)C(=O)C(C)NC(=O)C(C)NC(=O)C(C)NC(=O)OCc1ccccc1` (stereo not drawn) [Z-Ala-Ala-Ala-CO2 Me] came in with a Ki in assay [3] of 200 µM.
Turning to `CC(C)C[C@H](NC(=O)OCc1ccccc1)C(=O)N[C@@H](CC(C)C)C(=O)N[C@@H](Cc1ccc(O)cc1)C(=O)C=[N+]=[N-]` [Z-leu-leu-tyr-CHN2] (HELM PEPTIDE1{[O=C(OCc1ccccc1)[*:2]].L.L.Y.[[N-]=[N+]=C[*:1]]}$$$$V2.0), the “Kapp/[I] Calpain” value in the assay with Calpain is on record as 230000.

The values above are taken from US5444042A, “Method of treatment of neurodegeneration with calpain inhibitors” (Cortex Pharmaceuticals, priority 1994, dated 1995).
